Experimental data taken from patent US20150374779A1, “PHARMACOLOGIC TREATMENTS OF MENIÉRE'S DISEASE” (priority 2014, published 2015).
Where no end group is shown, it is not given here. [ ]: non-standard residue; d: D form.

Experiments:
[1] = test system: KOS strain of HSV-1; assay: single cycle herpes simplex virus infection assay (virus yield), fetal rat cortex neurons; format: cell-based; conditions: for Pfu/culture: MOI 5, harvest 20 h postinfection, DMSO 1.33 × 10^6
Method: (§1) A single cycle herpes simplex virus infection assay was performed to determine the effect of JNK inhibitors on virus yield.
(§2) To prepare a 1 mM stock solution, 5.15 mg of D-JNKI-1 acetate was suspended in 1 ml of water, vortexed for 2 minutes, and sterilized by passage through a PES filter; 50 μL aliquots were prepared and stored at −20° C.
(§3) Human neuroblastoma cells (SH-SY5Y) were maintained in DMEM plus 10% fetal calf serum, 1 mM HEPES (Gibco) and 2 μg/ml gentamicin (Gibco). For differentiation, monolayers of cells were rinsed in PBS and then maintained in Neurobasal medium (Gibco) plus 2% B27 supplement and […] all-trans retinoic acid (ATRA). Primary fetal rat cortex cells were maintained in Neurobasal medium plus 2% B27, 2 mM glutamine and […] gentamicin.
(§4) Monolayers of SH-SY5Y human neuroblastoma cells differentiated by treatment with ATRA, or fetal rat cortex neurons were pre-treated with 10-20 μM D-JNKI-1, 40 μM SP600125 (Calbiochem), or DMSO (D2650, Sigma-Aldrich) vehicle control for 30 minutes prior to infection. Monolayers were infected with the KOS strain of HSV-1 at a multiplicity of infection (MOI) of 5 for 60 minutes under conditions of pre-treatment. Following the inoculation period, monolayers were incubated under pre-treatment conditions and harvested at 20 hours postinfection.
(§5) Cells and media were collected, and subjected to three rounds of freezing and thawing. Serial ten-fold dilutions were prepared and aliquots seeded in triplicate onto monolayers of Vero cells. Following a 60-minutes infection period, the inoculum was removed and replaced with medium containing 0.3% methyl cellulose. After 3 days, the overlay was removed and the cell monolayer stained with 0.8% crystal violet in 50% ethanol and plaques counted to determine virus yield. Results were presented as % of yield relative to control conditions (DMSO vehicle treatment).

[2] = test system: KOS strain of HSV-1; assay: single cycle herpes simplex virus infection assay (virus yield), ATRA-differentiated SH-SY5Y human neuroblastoma cells; format: cell-based; conditions: for activity at 40 µM: Human alphaherpesvirus 1, Neuroblastoma cell; for virus yield, % of control: DMSO = 100
Method: as §1, §2, §3, §4, §5

[3] = test system: models of cochlear insult; conditions: acute noise trauma, acute labyrinthitis, aminoglycoside ototoxicity, bacterial infection, cochlear ischemia, cochlear implantation trauma; cited from earlier work
[4] = test system: ASNHL-related tinnitus; assay: double-blind, randomized, placebo-controlled phase II study of AM-111 in ASNHL and associated tinnitus; format: in vivo, human; conditions: for Complete ASNHL-Related Tinnitus Remission in the Treated Ear, Frequency (%): mITT; for Number of Subjects with Tinnitus/Number of Subjects with Observation (%): Day 90, placebo 28/50 (56.0)
Method: A double-blind, randomized, placebo-controlled phase II study was conducted to evaluate the efficacy and safety of AM-111 in treating ASNHL and associated tinnitus. Eligible participants were aged 18 to 60 years and suffered from ASNHL (unilateral idiopathic sudden sensorineural hearing loss (ISSNHL), uni- or bilateral acute acoustic trauma (AAT)) with hearing loss of at least 30 dB and onset not more than 48 hours previously. The hearing loss was determined against a reference value: mean hearing threshold at the 3 most affected contiguous test frequencies (pure tone average, PTA) less corresponding mean hearing threshold of the contralateral ear (Plontke et al., 2007). In case of previously asymmetric hearing or bilateral ASNHL, thresholds from a previous audiogram or ISO-7029; 2000 norm values served as reference. The PTA frequencies determined at baseline remained fixed for all evaluations.
Exclusion criteria included history of Meniére's disease, autoimmune or radiation induced hearing […] loss, endolymphatic hydrops or fluctuating hearing loss, suspected perilymph fistula, membrane rupture or retrocochlear lesion, barotrauma, air-bone gap >20 dB in 3 contiguous frequencies, previous ASNHL incident within the past 6 weeks, and acute or chronic otitis media or otitis externa. Women who were breast feeding, pregnant or who planned a pregnancy during the study, or women of childbearing potential who declared being unwilling or unable to practice an effective method of […] contraception were excluded. Written informed consent was obtained from each patient prior to the performance of any study-specific procedures.
At baseline (Day 0), study participants were randomized to receive AM-111 (0.4 or 2.0 mg/mL) or placebo at a 2:1 ratio. The study consisted of a baseline assessment and 4 follow-up visits on Days 3, 7, 30, and 90. Baseline assessments included a general physical examination, vital signs, and a urine pregnancy test for women of childbearing age. At each study visit pure tone hearing thresholds, speech discrimination at 60 and 80 dB, and subjective tinnitus loudness were determined. Those patients reporting tinnitus were asked to rate its loudness “right now” on a numerical scale ranging from 0 (no tinnitus) to 10 (extremely loud).
Approximately 0.25 mL of the study drug was administered on Day 0 by intratympanic (i.t.) injection under local anesthesia through a small myringotomy with the patient's head placed in a position tilted 45° towards the unaffected ear. Patients remained in their reclined or supine position for approximately 30 minutes to allow for diffusion of the active substance into the cochlea. In case of bilateral AAT, only the worst affected ear was treated. Subjects whose PTA recovered <10 dB from baseline to Day 7 were given the option to receive oral prednisolone 50 mg (Ratiopharm, Ulm, Germany) b.i.d. for 5 days.
The sample size was determined based on an expected effect size of 0.6, a two-sided type I error rate of 5% and a statistical power of 80%.
Efficacy analyses were primarily performed on a modified “Intention to treat” (mITT) analysis set (treated patients with PTA measured on Day 3±1 or Day 7+4 days at most) and secondarily on the “Per Protocol” (PP) analysis set. The “Safety Population” analysis set included all patients who received an injection of the study medication. Random imputation was performed for missing PTA values at Days 7 and 30, and missing speech discrimination score (SDS) values at Day 7 based on the preceding value and the mean change observed in the respective treatment group (mITT set).
For continuous efficacy endpoints, analysis of covariance (ANCOVA) models were used including treatment group and initial frequency range as class effects, and baseline values of the respective endpoint as covariate. For the complete recovery rate, a logistic regression model was applied including treatment, initial frequency range, and baseline hearing loss as predictor variables. […]

[5] = test system: reovirus T3D; conditions: cited from earlier work
[6] = test system: wild type HSV-1 (KOS); assay: Western blot assay of accumulation of HSV-1 viral proteins (IE, E, L classes) in SH-SY5Y cells and rat fetal cortex neurons; format: cell-based; conditions: 10 μM; both SH-SY5Y cells and fetal cortex neurons; 8 h post infection
Method: Cell monolayers were pretreated either with DMSO (DM, vehicle control), or the JNK inhibitors D-JNKI-1 (AM, 10 μM) or SP600125 (SP, 40 μM), then infected in the presence of drug for 60 minutes and finally in the presence of drug until the time of harvest, 8 hours post infection. Western blot for tubulin served as a loading control.
The ability of JNK inhibitors to affect accumulation of viral proteins representative of the immediate-early (IE), early (E) or late (L) kinetic classes was evaluated by a Western blot assay.
Unless indicated otherwise, the same materials and methods were applied as for the experiment described under Example 1 and as laid out by Hargett et al., 2005.
Replicate monolayers of rat fetal cortex neurons or ATRA-differentiated SH-SY5Y cells were pre-treated with DMSO, D-JNKI-1 (10 μM) or […] (40 μM) for 30 minutes, and then infected with wild type HSV-1 (KOS) or ICP27 null mutant d27 at a multiplicity of infection (MOI) of 5, or mock-infected under pre-treatment conditions for 60 minutes. The inoculum was removed and incubation continued under the pretreatment conditions until the time of harvest. Whole cell lysates were prepared at 8 h post infection. Aliquots of lysates were separated on 12% gels by standard polyacrylamide gel electrophoresis (SDS-PAGE) procedures. […]

## Oc1c2ccccc2c2c3c(cccc13)N=N2 [SP600125, reference compound]
[1]; 40 μM, fetal rat neurons
  Pfu/culture: 8.0 × 10^5 Pfu/culture
[1]; Human alphaherpesvirus 1, Neuron, 40 μM, fetal rat neurons, DMSO = 100, read-out: virus yield, % of control
  activity at 40 µM: 60%
[2]; First experiment, 40 μM, MOI 5, harvest 20 h postinfection, DMSO 3.5 × 10^5
  Pfu/culture: 2.57 × 10^5 Pfu/culture
[2]; read-out: virus yield, % of control, First experiment, 40 μM, DMSO = 100
  activity at 40 µM: 72%
[2]; read-out: virus yield, % of control, Second experiment, 40 μM, DMSO = 100
  activity at 40 µM: 20%
[2]; Second experiment, 40 μM, DMSO 8.5 × 10^5
  Pfu/culture: 1.76 × 10^5 Pfu/culture

## DQSRPVQPFLNLTTPRKPRPPRRRQRRKKRG (SEQ ID NO: 2) ([dD][dQ][dS][dR][dP][dV][dQ][dP][dF][dL][dN][dL][dT][dT][dP][dR][dK][dP][dR][dP][dP][dR][dR][dR][dQ][dR][dR][dK][dK][dR]G) [AM-111, 31-amino acid cell-permeable peptide, formulated in a biocompatible hyaluronic acid gel]
[3]
  otoprotection: otoprotective
[4]; All Subjects, 0.4 mg/mL, N = 50, Time point: Overall (90 days), placebo 28 (54.9%), p 0.151
  Complete ASNHL-Related Tinnitus Remission in the Treated Ear, Frequency (%): 35 (70.0%)
[4]; All Subjects, 2.0 mg/mL, N = 56, Overall, placebo 28 (54.9%), p 1.000
  Complete ASNHL-Related Tinnitus Remission in the Treated Ear, Frequency (%): 31 (55.4%)
[4]; 0.4 mg/mL i.t.
  Number of Subjects with Tinnitus/Number of Subjects with Observation (%): 38.0%
[4]; 2.0 mg/mL i.t.
  Number of Subjects with Tinnitus/Number of Subjects with Observation (%): 51.9%
[4]; Mild to Moderate Subgroup, 0.4 mg/mL, N = 25, Overall, placebo 22 (78.6%), p 0.732
  Complete ASNHL-Related Tinnitus Remission in the Treated Ear, Frequency (%): 21 (84.0%)
[4]; Mild to Moderate Subgroup, 2.0 mg/mL, N = 27, Overall, placebo 22 (78.6%), p 0.245
  Complete ASNHL-Related Tinnitus Remission in the Treated Ear, Frequency (%): 17 (63.0%)
[4]; subgroup mild to moderate hearing loss, 0.4 and 2.0 mg/mL
  complete tinnitus remission, difference between AM-111 treatment groups and placebo: no statistically significant differences

## DQSRPVQPFLNLTTPRKPRPPRRRQRRKKRG (SEQ ID NO: 2) (not fully specified (some residues); also: D-amino acids (positions not given here)) [D-JNKI-1]
[5]; otherwise lethal challenge with T3D (100×50% lethal dose)
  survival of intracerebrally infected mice: significantly prolonged survival
[5]; reovirus-infected mice
  CNS injury: reduced CNS injury
  c-Jun activation: reduced c-Jun activation
  neuronal apoptosis: reduced neuronal apoptosis
  viral titer or viral antigen distribution: without altering
[1]; 10 μM, fetal rat neurons, DMSO = 100
  virus yield, % of control: 12%
[1]; 10 μM, fetal rat neurons
  Pfu/culture: 1.67 × 10^5 Pfu/culture
[1]; rat cortex neurons
  virus yield (in words): substantially reduced
[6]
  L (gC and Us11) protein accumulation: severe reduction
  accumulation of IE (ICP27) and E (ICP8) proteins: moderate reductions
[2]
  virus yield (in words): substantially reduced
[2]; First experiment, 10 μM
  virus yield, % of control: 37%
[2]; First experiment, 10 μM, MOI 5, harvest 20 h postinfection, DMSO 3.5 × 10^5
  Pfu/culture: 1.27 × 10^5 Pfu/culture
[2]; Second experiment, 10 μM, DMSO 8.5 × 10^5
  Pfu/culture: 2.23 × 10^5 Pfu/culture
[2]; Second experiment, 10 μM
  virus yield, % of control: 26%
[2]; Second experiment, 20 μM, DMSO 8.5 × 10^5
  Pfu/culture: 2.06 × 10^5 Pfu/culture
[2]; Second experiment, 20 μM
  virus yield, % of control: 24%
